US6727390B2, “Fluorous phosphines and phosphine oxides” (University of Pittsburgh, priority 2001, dated 2004)

Legend:
[1] = Liquid-liquid partition coefficients between FC-72 and organic solvents (partitioning followed by HPLC analysis); type: physicochemical; details: room temperature; for Partition coefficient FC-72/THF (P = cfluorous phase/corganic phase): 50/50 (v/v) FC-72/THF; for Partition coefficient FC-72/methanol (P = cfluorous phase/corganic phase): 50/50 (v/v) FC-72/methanol; for Partition coefficient FC-72/toluene (P = cfluorous phase/corganic phase): 50/50 (v/v) FC-72/toluene
Method: Liquid-liquid partition coefficients for all six phosphines between FC-72 and three organic solvents (methanol, THF, and toluene) were also measured. The procedure involved a simple partitioning followed by HPLC analysis.

## FC(F)(F)C(F)(F)C(F)(F)C(F)(F)C(F)(F)C(F)(F)CCc1ccc(P(c2ccccc2)c2ccc(CCC(F)(F)C(F)(F)C(F)(F)C(F)(F)C(F)(F)C(F)(F)F)cc2)cc1 [Compound 1b, Phenyl-bis-[4-(3,3,4,4,5,5,6,6,7,7,8,8,8-tridecafluorooctyl)phenyl]phosphane]
[1]
  Partition coefficient FC-72/THF (P = cfluorous phase/corganic phase): 0.05
  Partition coefficient FC-72/methanol (P = cfluorous phase/corganic phase): 1.86
  Partition coefficient FC-72/toluene (P = cfluorous phase/corganic phase): 0.05
other
  melting point: 42.1 to 43.1 °C

## FC(F)(F)C(F)(F)C(F)(F)C(Cc1ccc(P(c2ccccc2)c2ccccc2)cc1)(C(F)(F)F)C(F)(F)F [Compound 5c, Diphenyl-[4-(3,3,4,4,5,5,5-heptafluoro-2,2-bis-trifluoromethylpentyl)phenyl]phosphane]
[1]
  Partition coefficient FC-72/THF (P = cfluorous phase/corganic phase): 0.01
  Partition coefficient FC-72/methanol (P = cfluorous phase/corganic phase): 0.09
  Partition coefficient FC-72/toluene (P = cfluorous phase/corganic phase): 0.12

## FC(F)(F)C(F)(F)C(F)(F)C(F)(F)C(F)(F)C(F)(F)CCc1ccc(P(c2ccc(CCC(F)(F)C(F)(F)C(F)(F)C(F)(F)C(F)(F)C(F)(F)F)cc2)c2ccc(CCC(F)(F)C(F)(F)C(F)(F)C(F)(F)C(F)(F)C(F)(F)F)cc2)cc1 [Compound 1a, Tris-[4-(3,3,4,4,5,5,6,6,7,7,8,8,8-tridecafluorooctyl)phenyl]phosphane]
[1]
  Partition coefficient FC-72/THF (P = cfluorous phase/corganic phase): 0.08
  Partition coefficient FC-72/methanol (P = cfluorous phase/corganic phase): 30.03
  Partition coefficient FC-72/toluene (P = cfluorous phase/corganic phase): 0.75
other
  melting point: 49.9 to 52.4 °C

## FC(F)(F)C(F)(F)C(F)(F)C(F)(F)C(F)(F)C(F)(F)CCc1ccc(P(c2ccccc2)c2ccccc2)cc1 [Compound 1c, Diphenyl-[4-(3,3,4,4,5,5,6,6,7,7,8,8,8-tridecafluorooctyl)phenyl]phosphane]
[1]
  Partition coefficient FC-72/THF (P = cfluorous phase/corganic phase): 0.02
  Partition coefficient FC-72/methanol (P = cfluorous phase/corganic phase): 0.12
  Partition coefficient FC-72/toluene (P = cfluorous phase/corganic phase): 0.05

## FC(F)(F)C(F)(F)C(F)(F)C(Cc1ccc(P(c2ccccc2)c2ccc(CC(C(F)(F)F)(C(F)(F)F)C(F)(F)C(F)(F)C(F)(F)F)cc2)cc1)(C(F)(F)F)C(F)(F)F [Compound 5b, Phenyl-bis-[4-(3,3,4,4,5,5,5-heptafluoro-2,2-bis-rifluoromethylpentyl)phenyl]phosphane]
[1]
  Partition coefficient FC-72/THF (P = cfluorous phase/corganic phase): 1.05
  Partition coefficient FC-72/methanol (P = cfluorous phase/corganic phase): 3.34
  Partition coefficient FC-72/toluene (P = cfluorous phase/corganic phase): 0.18

## FC(F)(F)C(F)(F)C(F)(F)C(Cc1ccc(P(c2ccc(CC(C(F)(F)F)(C(F)(F)F)C(F)(F)C(F)(F)C(F)(F)F)cc2)c2ccc(CC(C(F)(F)F)(C(F)(F)F)C(F)(F)C(F)(F)C(F)(F)F)cc2)cc1)(C(F)(F)F)C(F)(F)F [Compound 5a, Tris-[4-(3,3,4,4,5,5,5-heptafluoro-2,2-bis-trifluoromethylpentyl)phenyl]phosphane]
[1]
  Partition coefficient FC-72/THF (P = cfluorous phase/corganic phase): 0.51
  Partition coefficient FC-72/methanol (P = cfluorous phase/corganic phase): 18.48
  Partition coefficient FC-72/toluene (P = cfluorous phase/corganic phase): 6.84
